Measurements: article PMC12892976, “Alkylation-based optimization of antifungal FPPS inhibitors yields a potent, broad-spectrum lipophilic zoledronate derivative” (mBio, 2025)
Read-outs that look alike come from different tables or passages of the source.

Tests used:
eight fungal species [1] = assay: checkerboard interaction with azoles, summary across the eight species; format: cell-based; details: geometric mean MIC in combination with azoles
Text: Synergy between lipophilic FPPS inhibitors and azole antifungals was investigated by determining the fractional inhibitory concentration index (FICI) (Fig. 2; Table S1 Fig. S1) ([17]). […]. Derivatives PLA9 and 11, and PDA9, 11, and 12 antagonized azoles in C. albicans, C. neoformans, and C. deuterogattii, yet were largely synergistic in C. glabrata and S. cerevisiae. […].

Trichophyton rubrum [2] = assay: MIC/MFC broth microdilution (CLSI); details: Trichophyton rubrum
Experimental: (§1) Antifungal susceptibility was determined by broth microdilution according to the CLSI guidelines described in M27-Ed4 ([16]). […] MFC was determined by back-plating drug-treated cultures from MIC broths onto SDA plates. The MFC was defined as the lowest concentration from which no colonies could be cultured.

Candida glabrata [3] = assay: MIC/MFC broth microdilution (CLSI); details: Nakaseomyces glabratus, CBS138;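 note: broth microdilution following CLSI M27-Ed4, MFC taken as the lowest drug level yielding no growth once MIC wells were subcultured on SDA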
Experimental: as §1

Candida glabrata [4] = assay: checkerboard drug interaction (FICI, MICc);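 for all read-outs here: simplified diagonal checkerboard screen pairing antifungals with FPPS inhibitors, FICI calculated under the Loewe additivity model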; format: cell-based; details: C. glabrata; for INH FD (MIC-MICc fold decrease): fold decrease of inhibitor MIC
Experimental: (§2) Drug interactions between antifungals and FPPS inhibitors were investigated using a simplified checkerboard diagonal screening method ([45]). […] FICIs were determined according to the Loewe additivity model ([17]).

Candida albicans [5] = assay: checkerboard drug interaction (FICI, MICc);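 for all read-outs here: antifungal plus FPPS inhibitor combinations on Candida albicans tested by a simplified diagonal checkerboard screen, with FICI calculated under the Loewe additivity model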; format: cell-based; details: C. albicans; for INH FD (MIC-MICc fold decrease): fold decrease of inhibitor MIC
Experimental: as §2

Trichophyton rubrum [6] = assay: checkerboard drug interaction (FICI, MICc);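 note: simplified diagonal checkerboard screen pairing azole antifungals with FPPS inhibitors, FICI calculated under the Loewe additivity model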; format: cell-based; details: T. rubrum
Experimental: as §2

Saccharomyces cerevisiae [7] = assay: MIC/MFC broth microdilution (CLSI); format: cell-based; details: Saccharomyces cerevisiae S288c
Experimental: as §1

[8] = system: Cryptococcus deuterogattii; assay: MIC/MFC broth microdilution (CLSI); details: Cryptococcus deuterogattii;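 note: broth microdilution per CLSI M27-Ed4. MFC is the lowest concentration yielding no colonies when MIC broths are subcultured onto SDA plates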
Experimental: as §1

Aspergillus fumigatus [9] = assay: checkerboard drug interaction (FICI, MICc); format: cell-based;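 note: simplified diagonal checkerboard screen pairing antifungals with FPPS inhibitors against Aspergillus fumigatus, with FICI calculated under the Loewe additivity model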
Experimental: as §2

Cryptococcus neoformans [10] = assay: MIC/MFC broth microdilution (CLSI); details: Cryptococcus neoformans;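 note: susceptibility testing followed the CLSI M27-Ed4 broth microdilution document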
Experimental: as §1

Cryptococcus neoformans [11] = assay: checkerboard drug interaction (FICI, MICc);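 for all read-outs here: antifungal plus FPPS inhibitor pairs tested against Cryptococcus neoformans by simplified diagonal checkerboard screening, FICI computed under the Loewe additivity model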; format: cell-based; details: C. neoformans; for INH FD (MIC-MICc fold decrease): fold decrease of inhibitor MIC
Experimental: as §2

Saccharomyces cerevisiae [12] = assay: checkerboard drug interaction (FICI, MICc); format: cell-based; parameters: INH MICc / INH MICc (ITR:INH) / INH MICc (KET:INH) / INH MICc (FLC:INH): unit not given beside the values;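 note: simplified diagonal checkerboard screen pairing antifungals with FPPS inhibitors, FICI calculated under the Loewe additivity model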
Candida albicans [13] = assay: MIC/MFC broth microdilution (CLSI); format: cell-based; details: Candida albicans SC5314
Experimental: as §1

Aspergillus fumigatus [14] = assay: MIC/MFC broth microdilution (CLSI); details: ATCC204305
Experimental: as §1

Aspergillus flavus [15] = assay: checkerboard drug interaction (FICI, MICc);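 note: simplified diagonal checkerboard screen pairing azole antifungals with FPPS inhibitors, FICI calculated under the Loewe additivity model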; format: cell-based; parameters: INH MICc (KET:INH) / INH MICc (FLC:INH): unit not given beside the values; details: A. flavus
eight fungal species [16] = assay: MIC/MFC summary across the eight fungal species of Table 1; format: cell-based
Experimental: The antifungal activity of these compounds was evaluated according to CLSI guidelines ([16]).

[17] = system: Cryptococcus deuterogattii; assay: checkerboard drug interaction (FICI, MICc);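 for all read-outs here: simplified diagonal checkerboard screen pairing antifungal drugs with FPPS inhibitors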; format: cell-based; details: C. deuterogattii; for INH FD (MIC-MICc fold decrease): fold decrease of inhibitor MIC
Experimental: as §2

HEK-293T cells = assay: MTT reduction cytotoxicity assay; format: cell-based; details: Homo sapiens, HEK-293T, 72 h, HEK-293T, MTT, 72 h; read-out: HEK IC50
Aspergillus flavus [18] = assay: MIC/MFC broth microdilution (CLSI); details: ATCC204304
Experimental: as §1

[19] = FLC:INH combination, MIC of the inhibitor in combination with FLC
[20] = FLC:INH combination, fold decrease of FLC MIC
[21] = ITR:INH combination, MIC of the inhibitor in combination with ITR
[22] = ITR:INH combination, fold decrease of ITR MIC
[23] = KET:INH combination, MIC of the inhibitor in combination with KET
[24] = KET:INH combination, fold decrease of KET MIC
[25] = Fractional Inhibitory Concentration Index, fluconazole + inhibitor
[26] = Fractional Inhibitory Concentration Index, itraconazole + inhibitor
[27] = Fractional Inhibitory Concentration Index, ketoconazole + inhibitor
[28] = MIC of the inhibitor in combination with fluconazole
[29] = MIC of the inhibitor in combination with itraconazole
[30] = MIC of the inhibitor in combination with ketoconazole
[31] = MIC-MICc fold decrease of fluconazole, negative = increase
[32] = MIC-MICc fold decrease of itraconazole, negative = increase
[33] = MIC-MICc fold decrease of ketoconazole, negative = increase
[34] = MIC-MICc fold decrease of the inhibitor, with fluconazole
[35] = MIC-MICc fold decrease of the inhibitor, with itraconazole
[36] = MIC-MICc fold decrease of the inhibitor, with ketoconazole

CCCCCCCCCN1CCC[C@H]1C(=O)N[C@H](CC(=O)O)C(=O)O [PDA9]
GM fungal MICc (eight fungal species [1]): 52.3 | MFC (Trichophyton rubrum [2]): > 128 µg/mL | MIC (Trichophyton rubrum [2]): > 128 µg/mL | MFC (Candida glabrata [3]): > 128 µg/mL | MIC (Candida glabrata [3]): > 128 µg/mL | FICI (Candida glabrata [4]; FLC:INH combination): 0.31 | INH MICc (Candida glabrata [4]; [19]): 4 | FLC FD (MIC-MICc fold decrease) (Candida glabrata [4]; [20]): 4 | INH FD (MIC-MICc fold decrease) (Candida glabrata [4]; FLC:INH combination): 64 | FICI (Candida glabrata [4]; ITR:INH combination): 0.28 | INH MICc (Candida glabrata [4]; [21]): 2 | ITR FD (MIC-MICc fold decrease) (Candida glabrata [4]; [22]): 4 | INH FD (MIC-MICc fold decrease) (Candida glabrata [4]; ITR:INH combination): 128 | FICI (Candida glabrata [4]; KET:INH combination): 0.28 | INH MICc (Candida glabrata [4]; [23]): 2 | KET FD (MIC-MICc fold decrease) (Candida glabrata [4]; [24]): 4 | INH FD (MIC-MICc fold decrease) (Candida glabrata [4]; KET:INH combination): 128 | FICI (Candida albicans [5]; FLC:INH combination): ≥4 | INH MICc (Candida albicans [5]; [19]): 64 | FLC FD (MIC-MICc fold decrease) (Candida albicans [5]; [20]): < -4 | INH FD (MIC-MICc fold decrease) (Candida albicans [5]; FLC:INH combination): 4 | FICI (Candida albicans [5]; ITR:INH combination): ≥4 | INH MICc (Candida albicans [5]; [21]): 64 | ITR FD (MIC-MICc fold decrease) (Candida albicans [5]; [22]): < -4 | INH FD (MIC-MICc fold decrease) (Candida albicans [5]; ITR:INH combination): 4 | FICI (Candida albicans [5]; KET:INH combination): ≥4 | INH MICc (Candida albicans [5]; [23]): 64 | KET FD (MIC-MICc fold decrease) (Candida albicans [5]; [24]): < -4 | INH FD (MIC-MICc fold decrease) (Candida albicans [5]; KET:INH combination): 4 | FICI (FLC:INH) (Trichophyton rubrum [6]; [25]): 3 | FICI (ITR:INH) (Trichophyton rubrum [6]; [26]): 2 | FICI (KET:INH) (Trichophyton rubrum [6]; [27]): 0.75 | INH MICc (FLC:INH) (Trichophyton rubrum [6]; [28]): 256 | INH MICc (ITR:INH) (Trichophyton rubrum [6]; [29]): 256 | INH MICc (KET:INH) (Trichophyton rubrum [6]; [30]): 64 | FLC FD (FLC:INH) (Trichophyton rubrum [6]; [31]): -2 | ITR FD (ITR:INH) (Trichophyton rubrum [6]; [32]): 1 | KET FD (KET:INH) (Trichophyton rubrum [6]; [33]): 2 | INH FD (FLC:INH) (Trichophyton rubrum [6]; [34]): 1 | INH FD (ITR:INH) (Trichophyton rubrum [6]; [35]): 1 | INH FD (KET:INH) (Trichophyton rubrum [6]; [36]): 4 | MFC (Saccharomyces cerevisiae [7]): > 128 µg/mL | MIC (Saccharomyces cerevisiae [7]): > 128 µg/mL | MFC [8]: > 128 µg/mL | MIC [8]: > 128 µg/mL | FICI (FLC:INH) (Aspergillus fumigatus [9]; [25]): 2 | FICI (ITR:INH) (Aspergillus fumigatus [9]; [26]): 0.25 | FICI (KET:INH) (Aspergillus fumigatus [9]; [27]): 1.5 | INH MICc (FLC:INH) (Aspergillus fumigatus [9]; [28]): 256 | INH MICc (ITR:INH) (Aspergillus fumigatus [9]; [29]): 1 | INH MICc (KET:INH) (Aspergillus fumigatus [9]; [30]): 128 | FLC FD (FLC:INH) (Aspergillus fumigatus [9]; [31]): 1 | ITR FD (ITR:INH) (Aspergillus fumigatus [9]; [32]): 4 | KET FD (KET:INH) (Aspergillus fumigatus [9]; [33]): 1 | INH FD (FLC:INH) (Aspergillus fumigatus [9]; [34]): 1 | INH FD (ITR:INH) (Aspergillus fumigatus [9]; [35]): 256 | INH FD (KET:INH) (Aspergillus fumigatus [9]; [36]): 2 | MFC (Cryptococcus neoformans [10]): > 128 µg/mL | MIC (Cryptococcus neoformans [10]): > 128 µg/mL | FICI (Cryptococcus neoformans [11]; FLC:INH combination): ≥4 | INH MICc (Cryptococcus neoformans [11]; [19]): 256 | FLC FD (MIC-MICc fold decrease) (Cryptococcus neoformans [11]; [20]): < -4 | INH FD (MIC-MICc fold decrease) (Cryptococcus neoformans [11]; FLC:INH combination): 1 | FICI (Cryptococcus neoformans [11]; ITR:INH combination): ≥4 | INH MICc (Cryptococcus neoformans [11]; [21]): 128 | ITR FD (MIC-MICc fold decrease) (Cryptococcus neoformans [11]; [22]): -4 | INH FD (MIC-MICc fold decrease) (Cryptococcus neoformans [11]; ITR:INH combination): 2 | FICI (Cryptococcus neoformans [11]; KET:INH combination): ≥4 | INH MICc (Cryptococcus neoformans [11]; [23]): 128 | KET FD (MIC-MICc fold decrease) (Cryptococcus neoformans [11]; [24]): -4 | INH FD (MIC-MICc fold decrease) (Cryptococcus neoformans [11]; KET:INH combination): 2 | FICI (FLC:INH) (Saccharomyces cerevisiae [12]; [25]): 0.75 | FICI (ITR:INH) (Saccharomyces cerevisiae [12]; [26]): 2.06 | FICI (KET:INH) (Saccharomyces cerevisiae [12]; [27]): 0.5 | INH MICc (FLC:INH) (Saccharomyces cerevisiae [12]; [28]): 64 | INH MICc (ITR:INH) (Saccharomyces cerevisiae [12]; [29]): 16 | INH MICc (KET:INH) (Saccharomyces cerevisiae [12]; [30]): 64 | FLC FD (FLC:INH) (Saccharomyces cerevisiae [12]; [31]): 2 | ITR FD (ITR:INH) (Saccharomyces cerevisiae [12]; [32]): -2 | KET FD (KET:INH) (Saccharomyces cerevisiae [12]; [33]): 4 | INH FD (FLC:INH) (Saccharomyces cerevisiae [12]; [34]): 4 | INH FD (ITR:INH) (Saccharomyces cerevisiae [12]; [35]): 16 | INH FD (KET:INH) (Saccharomyces cerevisiae [12]; [36]): 4 | MFC (Candida albicans [13]): > 128 µg/mL | MIC (Candida albicans [13]): > 128 µg/mL | MFC (Aspergillus fumigatus [14]): > 128 µg/mL | MIC (Aspergillus fumigatus [14]): > 128 µg/mL | FICI (FLC:INH) (Aspergillus flavus [15]; [25]): 1 | FICI (ITR:INH) (Aspergillus flavus [15]; [26]): 1.02 | FICI (KET:INH) (Aspergillus flavus [15]; [27]): 1 | INH MICc (FLC:INH) (Aspergillus flavus [15]; [28]): 128 | INH MICc (ITR:INH) (Aspergillus flavus [15]; [29]): 4 | INH MICc (KET:INH) (Aspergillus flavus [15]; [30]): 128 | FLC FD (FLC:INH) (Aspergillus flavus [15]; [31]): 2 | ITR FD (ITR:INH) (Aspergillus flavus [15]; [32]): 1 | KET FD (KET:INH) (Aspergillus flavus [15]; [33]): 2 | INH FD (FLC:INH) (Aspergillus flavus [15]; [34]): 2 | INH FD (ITR:INH) (Aspergillus flavus [15]; [35]): 64 | INH FD (KET:INH) (Aspergillus flavus [15]; [36]): 2 | MFC (eight fungal species [16]; across eight species, read-out: Geometric mean MFC): > 128 µg/mL | MIC (eight fungal species [16]; geometric mean across eight species, read-out: GM fungal MIC): > 128 µg/mL | MIC (eight fungal species [16]; read-out: Geometric mean MIC): > 128 µg/mL | FICI ([17]; FLC:INH combination): ≥4 | INH MICc [17, 19]: 256 | FLC FD (MIC-MICc fold decrease) [17, 20]: -4 | INH FD (MIC-MICc fold decrease) ([17]; FLC:INH combination): 1 | FICI ([17]; ITR:INH combination): ≥4 | INH MICc [17, 21]: 256 | ITR FD (MIC-MICc fold decrease) [17, 22]: < -4 | INH FD (MIC-MICc fold decrease) ([17]; ITR:INH combination): 1 | FICI ([17]; KET:INH combination): 2 | INH MICc [17, 23]: 256 | KET FD (MIC-MICc fold decrease) [17, 24]: 1 | INH FD (MIC-MICc fold decrease) ([17]; KET:INH combination): 1 | IC50 (HEK-293T cells): > 256 µg/mL | MFC (Aspergillus flavus [18]): > 128 µg/mL | MIC (Aspergillus flavus [18]): > 128 µg/mL
